Measurements taken from patent publication US9003693B2, “Control of zebra mussels in closed service water systems” (ASI Group Ltd., priority 2013, dated 2015).
Like-named read-outs stand apart in the source and are kept apart here. Marks after values point to notes of the source that are not given here.

Columns and labels:
[1] = tested on: adult zebra mussels
Method: Laboratory research was carried out to investigate potash for mussel control by itself or in combination with oxidizing agents such as chlorine or hydrogen peroxide.
Experiments were carried out with adult zebra mussels using potassium chloride (KCl) alone, as well as chloramine, hydrogen peroxide and combinations thereof to determine the estimated time to 95% mortality. Experimentation was carried out at 100 mg/L K^+ and test temperatures ranged from 2 to 30° C.

[2] = tested on: Fathead minnow; experiment: KCl toxicity test on non-target species (EPS protocol); assay type: in vivo
Method: (§1) Studies were performed to investigate the environmental effects on non-target species of treatment with concentrations of potassium effective for controlling zebra mussels. As set out below, potassium when discharged at concentrations of 100 mg/l or less is an environmentally benign method of zebra mussel control. This is an important advantage over other methods of controlling zebra mussels such as by the use of chlorine or other oxidizing agents which can result in significant non-target species toxicity.
(§2) A stock solution at 1000 mg/l KCl was used to set all tests. Dilutions were made from these stocks. Test methods were as dictated by EPS protocols for each test organism.

[3] = tested on: Rainbow trout; experiment: as above; assay type: in vivo; conditions: acute test
Method: as §1, §2

[4] = tested on: Ceriodaphnia dubia; experiment: as above; assay type: in vivo
Method: as §1, §2

[5] = tested on: Daphnia magna; experiment: as above; assay type: in vivo; conditions: acute test
Method: as §1, §2

[6] = tested on: young adult (<1.5 cm) zebra mussels; experiment: Flow-through contact chamber mortality study, adult mussels; assay type: in vivo; conditions: for Final mortality of adult mussels: end of the 52 day trial
Method: (§3) Mortality studies using flow through contact chambers were performed with young adult (<1.5 cm) zebra mussels and naturally occurring veliger populations at a small tributary of a canal located in southern Ontario, Canada. Water temperatures ranged between 20 and 25° C. throughout the trial.
Adult zebra mussels were exposed to three concentrations of K^+ (40 mg/l, 30 mg/l, and 20 mg/l) as well as a control chamber. Each concentration as well as the control was replicated three times. The nature of the design allowed for simultaneous trials with adults and veligers. Sixty adult mussels (six groups of ten) were exposed in each replicate test concentration and control tank. Mussels were contained in PVC mesh baskets which allowed free flow of water while maintaining the mussels in discrete groups of ten.
(§4) A concentrated potassium solution was metered into each replicate test line prior to its entering the test tanks from a pre-mixed batch tank. Potassium source was commercial grade potash which was 60% potassium by weight. The potassium concentration was controlled through differential metering rates. Flow-through trials were carried out for 52 days at which point final mortality in adults was recorded.

[7] = tested on: naturally occurring veliger larvae; experiment: Larval settlement on PVC settling plates in flow-through tanks; assay type: in vivo, zebra mussel (Dreissena polymorpha); conditions: 52 day trial period; for Larval (veliger) settlement: 30 mg/l K+
Method: as §3
In addition to adult trials, six PVC settling plates were installed in one replicate tank at each test concentration as well as the control. The presence of naturally occurring veliger larvae in the water source provided the opportunity of determining settling rates at each test concentration.
as §4

In the case of `OO` [H2O2, hydrogen peroxide], the “Estimated time (hours) to 95% mortality” value ([1]; H2O2 5 mg/L, 12-14 °C, extrapolated value) is reported as 1714* hours, the “Estimated time (hours) to 95% mortality” value ([1]; H2O2 5 mg/L, 20-21 °C, extrapolated value) is reported as 455* hours and the “Estimated time (hours) to 95% mortality” value ([1]; H2O2 5 mg/L, 22-24 °C, extrapolated value) is reported as 294* hours. The “Estimated time (hours) to 95% mortality” value ([1]; H2O2 10 mg/L, 12-14 °C) was 227 h, the “Estimated time (hours) to 95% mortality” value ([1]; H2O2 10 mg/L, 20-21 °C) was 36 h and the “Estimated time (hours) to 95% mortality” value ([1]; H2O2 10 mg/L, 22-24 °C) was 21 h.
In the case of `[Cl-].[K+]` [KCl, potassium chloride], the IC25 [2] is reported as 736.2 µg/mL, the IC50 [2] is reported as 892.5 µg/mL and the LC50 [2] is reported as 512.7 µg/mL. The “GROWTH/REPRODUCTIVE DATA LOEC” value ([2]; NED = no effect detected) was “NED”, the “GROWTH/REPRODUCTIVE DATA NOEC” value ([2]; NED = no effect detected) was “NED” and the “GROWTH/REPRODUCTIVE DATA TEC” value ([2]; NED = no effect detected) was “NED”. For the same compound, the “SURVIVAL DATA LOEC” value ([2]; chronic test) was 603 mg/L, the “SURVIVAL DATA NOEC” value ([2]; chronic test) was 302 mg/L and the “SURVIVAL DATA TEC (threshold effect concentration)” value ([2]; chronic test) was 426.7 mg/L. The LC50 [3] was 1248.4 µg/mL, the IC25 [4] was 189.3 µg/mL and the IC50 [4] was 256.8 µg/mL. For the same compound, the LC50 [4] was 219.6 µg/mL, the “GROWTH/REPRODUCTIVE DATA LOEC” value ([4]; NED = no effect detected) was “NED” and the “GROWTH/REPRODUCTIVE DATA NOEC” value ([4]; NED = no effect detected) was “NED”. The “GROWTH/REPRODUCTIVE DATA TEC” value ([4]; NED = no effect detected) was “NED”, the “SURVIVAL DATA LOEC” value ([4]; chronic test) was 385 mg/L and the “SURVIVAL DATA NOEC” value ([4]; chronic test) was 193 mg/L. For the same compound, the “SURVIVAL DATA TEC (threshold effect concentration)” value ([4]; chronic test) was 272.6 mg/L, the LC50 [5] was 188.8 µg/mL and the “Estimated time (hours) to 95% mortality” value ([1]; KCl at 100 mg/L K+, 10-12 °C, extrapolated value) was 283* hours. For the same compound, the “Estimated time (hours) to 95% mortality” value ([1]; KCl at 100 mg/L K+, 12-14 °C) was 165 h, the “Estimated time (hours) to 95% mortality” value ([1]; KCl at 100 mg/L K+, 13-17 °C) was 113 h and the “Estimated time (hours) to 95% mortality” value ([1]; KCl at 100 mg/L K+, 14-26 °C) was 22 h. For the same compound, the “Estimated time (hours) to 95% mortality” value ([1]; KCl at 100 mg/L K+, 20-21 °C) was 56 h and the “Estimated time (hours) to 95% mortality” value ([1]; KCl at 100 mg/L K+, 22-24 °C, extrapolated value) was 33* hours.
`NCl` [chloramine] was tested, and the “Estimated time (hours) to 95% mortality” value ([1]; chloramine 0.5 mg/L, 10-12 °C, extrapolated value) was 480* hours, the “Estimated time (hours) to 95% mortality” value ([1]; chloramine 0.5 mg/L, 14-26 °C, extrapolated value) was 97* hours and the “Estimated time (hours) to 95% mortality” value ([1]; chloramine 1.0 mg/L, 10-12 °C) was 258 h. For the same compound, the “Estimated time (hours) to 95% mortality” value ([1]; chloramine 1.0 mg/L, 13-17 °C) was 209 h, the “Estimated time (hours) to 95% mortality” value ([1]; chloramine 1.0 mg/L, 14-26 °C) was 60 h and the “Estimated time (hours) to 95% mortality” value ([1]; chloramine 2.0 mg/L, 13-17 °C) was 87 h.
In the case of `[K+]` [potassium cation], the “Final mortality of adult mussels” value ([6]; 20 mg/l K+, water 20-25 °C) is reported as 73%, the “Final mortality of adult mussels” value ([6]; 30 mg/l K+, water 20-25 °C) is reported as 91% and the “Mortality of a target population” value ([6]; 40 mg/L potassium, within two weeks, water temperatures above 15 °C) is reported as “up to 100%”. For the same compound, the “Time to complete mortality of adult mussels” value ([6]; 40 mg/l K+, flow-through, water 20-25 °C) was at most 25 days, the “Mortality of zebra mussels over time (in words)” value ([6]; 40 mg/l potassium) was “significant mortality within two weeks and complete mortality in this trial in just over three weeks” and the “Larval (veliger) settlement” value [7] was “No larval settlement was detected”. The “Larval (veliger) settlement” value ([7]; listed as Potassium) was “effective at preventing settlement of veligers”, the Larval settlement ([7]; 40 mg/l K+) was “No larval settlement was detected” and the Zebra mussel mortality ([1]; 100 mg/L potassium, in 48 hours, water temperatures above 15 °C) was 100%. The “Estimated time (hours) to 95% mortality” value ([1]; KCl at 100 mg/L K+, 14-26 °C) was 22 h.
